How the values were obtained:
[1] = tested on: rat muscle cell lines; assay: Fatty acid oxidation in muscle cell lines; format: cell-based
[2] = target: T1, hPPARα (Homo sapiens, UniProt Q07869); assay: PPAR receptor transactivation assay (UAS-bla Gal4, HEK293); format: cell-based; conditions: PPARα
T1 construct: expressed in transfected cells; host or cells: Jump-In GripTite HEK293
Method: Compound I was tested on all three human PPAR subtypes (hPPAR): hPPARα, hPPARγ, and hPPARδ in vitro assays testing for such activity.
Compound I was tested on all three human PPAR subtypes (hPPAR): hPPARα, hPPARγ, and hPPARδ. All assays were repeated at least three times for each subtype.
The genes of interest were synthesized and cloned into an appropriate Jump-In™ retargeting vector following the User Guide of the Jump-in™ T-REx™ HEK293 Retargeting Kit (ThermoFisher Catalog No A15008). For example, the vector will be used to transfect and retarget the Jump-In™ HEK293 GripTite™ parental cell line. Stable pools will be antibiotic-selected for about 21 days and tested for target gene expression by functional assay.
Jump-In™ GripTite™ HEK293 parental cells were plated at 60-80% confluency in a T-75 flask in growth medium without antibiotics and transfected with a 1:1 ratio of expression construct and R4 integrase expression construct (20 μg DNA total) using Lipofectamine® LTX (50 μL) and PLUS™ Reagent (20 μL). Following a 48 hours incubation, cells were selected with 600 μg/mL Geneticin® and 10 μg/mL Blasticidin for ˜21 days in growth medium.
Jump-In™ GripTite™ HEK293 rPPAR Alpha, Delta or Gamma UAS-bla-Gal4 cell pools were plated in a 384-well plate format (20,000 cells per well) in OptiMeM without FBS in replicates (n=4). Cells were allowed to adhere for 8 hours before addition of Compound I (1 mM top concentration, 3-fold dilutions, 10-point titration). After 16 hours, the cells were loaded with LiveBLAzer®, a fluorescent BLA substrate that gives a blue/green readout of expressing/non-expressing cells, respectively. The blue/green readout was measured on a fluorescent plate reader (Tecan Safire II).

[3] = tested on: patients with FAOD (CPT2, VLCAD, LCHAD, TFP); assay: Clinical trial for fatty acid oxidation disorder (FAOD); format: in vivo, human; conditions: for 12 MWT Mean Change / MFIS Total Mean Change / SF-36 Energy/Fatigue Mean Change / decrease in MFIS / increase in SF-36 energy/fatigue domain: Baseline to Week 12
From the text: Purpose: The purposes of this study were: to assess the safety and tolerability of 12 weeks treatment with Compound I, or a pharmaceutically acceptable salt or solvate thereof (e.g., Compound II), in patients with FAOD; to investigate pharmacokinetics of Compound I, or a pharmaceutically acceptable salt or solvate thereof (e.g., Compound II), in patients with FAOD treated with Compound I, or a pharmaceutically acceptable salt or solvate thereof (e.g., Compound II); to investigate the pharmacodynamics effects of Compound I, or a pharmaceutically acceptable salt or solvate thereof (e.g., Compound II), in patients with FAOD treated with Compound I, or a pharmaceutically acceptable salt or solvate thereof (e.g., Compound II).
Intervention: Patients were administered 10-200 mg of Compound I, or a pharmaceutically acceptable salt or solvate thereof (e.g., Compound II), per day as single agent or in combination. In one cohort, patients received 50 mg of Compound I, or a pharmaceutically acceptable salt or solvate thereof (e.g., Compound II), once daily for a total of 12 weeks. In another cohort, patients received 100 mg of Compound I, or a pharmaceutically acceptable salt or solvate thereof (e.g., Compound II), once daily for a total of 12 weeks.
Detailed Description: Patients were given Compound I, or a pharmaceutically acceptable salt or solvate thereof, orally once a day.
Inclusion Criteria: Confirmed diagnosis of one of the following: carnitine palmitoyl transferase II deficiency (CPT2), very long-chain Acyl-CoA dehydrogenase deficiency (VLCAD), long-chain 3-hydroxyacyl-CoA dehydrogenase deficiency (LCHAD), or trifunctional protein deficiency (TFP).
Primary Outcome Measures: Safety Endpoints included: number and severity of adverse events. Absolute values, changes from baseline at Week 12 and incidence of clinically significant changes in: laboratory safety tests; electrocardiograms; supine vital signs; evaluation of events of special interest (rhabdomyolysis) and clinically significant changes in laboratory parameters of muscle injury including total CPK, adolase, and cardiac specific troponin (cTn).
Pharmacodynamic Endpoints included: Absolute values and changes from baseline at Week 12 in: whole body fatty acid oxidation (^13CO2 production) and blood acylcarnitines (UHPLC-MS/MS method).
Secondary Outcome Measures: Assessment of the change from baseline following 12 weeks of treatment with Compound I, or a pharmaceutically acceptable salt or solvate thereof (e.g., Compound II), in: submaximal treadmill exercise tolerance; distance walked during a 12 minute walk test; 36-Item Short Form Survey (SF-36) total score and subscales (questions 3-12). Change from baseline in Fatigue Impact Scale score (every visit). Change from baseline in Brief Pain Inventory (short form) (every visit). Blood inflammatory cytokines (Multiplex Immunoassay for sE-Selectin; GM-CSF; ICAM-1/CD54; IFN alpha; IFN gamma; IL-1 alpha; IL-1 beta; IL-4; IL-6; IL-8; IL-10; IL-12p70; IL-13; IL-17A/CTLA-8; IP-10/CXCL10; MCP-1/CCL2; MIP-1alpha/CCL3; MIP-1 beta/CCL4; sP-Selectin; TNF alpha).

[4] = tested on: human retinoid X receptor (hRXR); assay: Nuclear receptor activity
[5] = target: LXRβ (Homo sapiens, UniProt P55055); assay: Nuclear receptor activity
[6] = 24 patients, 50 or 100 mg/day, 12 weeks

Sequence of LXRβ (P55055 whole entry): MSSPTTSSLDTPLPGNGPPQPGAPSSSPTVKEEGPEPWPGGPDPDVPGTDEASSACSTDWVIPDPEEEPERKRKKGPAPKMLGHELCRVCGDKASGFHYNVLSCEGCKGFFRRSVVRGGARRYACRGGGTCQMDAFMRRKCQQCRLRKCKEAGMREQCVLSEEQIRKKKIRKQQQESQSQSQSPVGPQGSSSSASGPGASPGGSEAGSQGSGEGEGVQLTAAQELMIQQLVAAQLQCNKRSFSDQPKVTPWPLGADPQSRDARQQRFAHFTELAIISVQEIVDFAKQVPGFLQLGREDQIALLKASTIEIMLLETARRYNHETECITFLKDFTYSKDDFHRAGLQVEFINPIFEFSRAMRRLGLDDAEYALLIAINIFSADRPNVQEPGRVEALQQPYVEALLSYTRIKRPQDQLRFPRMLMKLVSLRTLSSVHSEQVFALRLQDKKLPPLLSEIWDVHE
T1 sequence (Q07869 whole entry, the tested form may be a part): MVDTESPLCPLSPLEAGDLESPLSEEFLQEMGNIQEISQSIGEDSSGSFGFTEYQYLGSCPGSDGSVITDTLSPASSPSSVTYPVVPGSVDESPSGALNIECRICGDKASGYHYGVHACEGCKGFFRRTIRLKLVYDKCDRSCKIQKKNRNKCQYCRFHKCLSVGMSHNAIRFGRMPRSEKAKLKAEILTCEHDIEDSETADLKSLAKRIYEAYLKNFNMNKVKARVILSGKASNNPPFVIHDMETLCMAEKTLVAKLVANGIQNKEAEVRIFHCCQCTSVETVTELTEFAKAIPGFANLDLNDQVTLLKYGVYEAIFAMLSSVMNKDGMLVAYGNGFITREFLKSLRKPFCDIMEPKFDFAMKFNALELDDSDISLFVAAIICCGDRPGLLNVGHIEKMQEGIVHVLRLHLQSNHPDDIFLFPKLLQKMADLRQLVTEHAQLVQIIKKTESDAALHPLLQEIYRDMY

Cc1cc(OC/C=C(/c2ccc(F)cc2)c2ccc(C#CCN3CCOCC3)cc2)ccc1OCC(=O)O [Compound I, (E)-2-(4-((3-(4-fluorophenyl)-3-(4-(3-morpholinoprop-1-yn-1-yl)phenyl)allyl)oxy)-2-methylphenoxy)acetic acid]
fatty acid oxidation [1]: dose-dependent increase | agonist type [2]: partial agonist | distance walked during a 12-minute walk test ([3]; 50 mg once daily, 12 weeks): able to increase distance walked | exhaled 13CO2 ([3]; 50 mg once daily, 12 weeks): trend towards increases | heart rate during the last ten minutes of exercise ([3]; 50 mg once daily, 12 weeks): decreases | TEAEs reported as study drug related [3, 6]: 30% | patients discontinuing treatment [3, 6]: 12.5% | patients reporting rhabdomyolysis (most common TEAE) [3, 6]: 16.7% | patients reporting treatment-emergent adverse events (TEAEs) [3, 6]: 75% | severity of the majority of study drug related TEAEs [3, 6]: mild or moderate | 12 MWT Mean Change ([3]; CPT2 subgroup): 51.9 meters | MFIS Total Mean Change ([3]; CPT2 subgroup): 1.0 | SF-36 Energy/Fatigue Mean Change ([3]; CPT2 subgroup): 0.8 | tolerability ([3]; FAOD patients): well tolerated | 12 MWT Mean Change ([3]; LCHAD subgroup): 73.7 meters | MFIS Total Mean Change ([3]; LCHAD subgroup): −9.8 | SF-36 Energy/Fatigue Mean Change ([3]; LCHAD subgroup): 19.5 | decrease in MFIS ([3]; LCHAD subgroup): 9.8 point | increase in SF-36 energy/fatigue domain ([3]; LCHAD subgroup): 19.5 point | decrease in MFIS ([3]; TFP subgroup (n = 2)): 8.0 point | increase in SF-36 energy/fatigue domain ([3]; TFP subgroup (n = 2)): 25.0 point | 12 MWT Mean Change ([3]; VLCAD subgroup): −36.7 meters | MFIS Total Mean Change ([3]; VLCAD subgroup): 15.6 | SF-36 Energy/Fatigue Mean Change ([3]; VLCAD subgroup): −17.8 | hRXR activity [4]: did not show any | activity on nuclear receptor LXRβ [5]: did not show any
